Experimental data taken from ChEMBL document CHEMBL1201862, “PubChem BioAssay data set” (2004).
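Interpolation was linear, between the two tested concentrations surrounding the appropriate level; five concentrations were tested over 48 hours in 96-well plates. The concentration for 50% growth inhibition is given as GI50.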 Active and inactive are the calls of the source. No stated cut-off is given here; in the data, active = GI50 up to about 1.1 µM and inactive = higher. Residues, ends and D or L forms follow the SMILES beside them. *: point of attachment. Boc = CC(C)(C)OC(=O)*

Key:
Assay in all cases: NCI tumour cell line growth inhibition, 48 h
A498 = system: A498
CCRF-CEM = system: CCRF-CEM
COLO 205 = system: COLO 205
EKVX = system: EKVX
LOX IMVI = system: LOX IMVI
M14 = system: M14
MCF7 = system: MCF7
MDA-MB-231 = system: MDA-MB-231
MDA-MB-435 = system: MDA-MB-435
OVCAR-5 = system: OVCAR-5
RPMI-8226 = system: RPMI-8226
SF-268 = system: SF-268
SF-295 = system: SF-295
SK-MEL-28 = system: SK-MEL-28
SN12C = system: SN12C
SR = system: SR
TK-10 = system: TK-10
U-251 = system: U-251
NCI-H226 = system: NCI-H226
RXF 393 = system: RXF 393

| SMILES | GI50 (A498) | GI50 (CCRF-CEM) | GI50 (COLO 205) | GI50 (EKVX) | GI50 (LOX IMVI) | GI50 (M14) | GI50 (MCF7) | GI50 (MDA-MB-231) | GI50 (MDA-MB-435) | GI50 (OVCAR-5) | GI50 (RPMI-8226) | GI50 (SF-268) | GI50 (SF-295) | GI50 (SK-MEL-28) | GI50 (SN12C) | GI50 (SR) | GI50 (TK-10) | GI50 (U-251) | GI50 (NCI-H226) | GI50 (RXF 393) |
| --- | --- | --- | --- | --- | --- | --- | --- | --- | --- | --- | --- | --- | --- | --- | --- | --- | --- | --- | --- | --- |
| COc1ccc(OC)c2sc(N3C(=O)/C(=C/c4ccc(SC)cc4)N=C3c3ccccc3)nc12 | > 100 µM (inactive) | 8.17 µM (inactive) | 58.5 µM (inactive) | 32.1 µM (inactive) | 25.6 µM (inactive) | 21.2 µM (inactive) | 20.3 µM (inactive) | > 100 µM (inactive) | 17.2 µM (inactive) | 47.3 µM (inactive) | 13.3 µM (inactive) | 14.1 µM (inactive) | 42 µM (inactive) | > 100 µM (inactive) | 24.9 µM (inactive) | 26.4 µM (inactive) | > 100 µM (inactive) | 17.5 µM (inactive) |  |  |
| NS(=O)(=O)c1ccc2c(c1)OCCOCCOCCOCCO2 | > 100 µM (inactive) | > 100 µM (inactive) | > 100 µM (inactive) | > 100 µM (inactive) | > 100 µM (inactive) | > 100 µM (inactive) | > 100 µM (inactive) | > 100 µM (inactive) | > 100 µM (inactive) |  | > 100 µM (inactive) | > 100 µM (inactive) | > 100 µM (inactive) | > 100 µM (inactive) | > 100 µM (inactive) | > 100 µM (inactive) | > 100 µM (inactive) |  | > 100 µM (inactive) |  |
| COc1ccc(N2C(=O)C3c4[nH]c5cccc(Cl)c5c4C4CCC(C(C)(C)C)CC4C3C2=O)cc1 (stereo not given) | 74.1 µM (inactive) |  | > 100 µM (inactive) | > 100 µM (inactive) | > 100 µM (inactive) | > 100 µM (inactive) | > 100 µM (inactive) | > 100 µM (inactive) | > 100 µM (inactive) | > 100 µM (inactive) | > 100 µM (inactive) | 50.6 µM (inactive) | 47.2 µM (inactive) | > 100 µM (inactive) | > 100 µM (inactive) | 8.47 µM (inactive) | > 100 µM (inactive) | 39.2 µM (inactive) | > 100 µM (inactive) |  |
| O=C1CSC(c2ccccc2[N+](=O)[O-])N1c1ccc(-c2ccc(-n3c(-c4ccccc4)nc4ccccc4c3=O)cc2)cc1 (stereo not given) | > 100 µM (inactive) | 46.2 µM (inactive) | > 100 µM (inactive) | > 100 µM (inactive) | 54 µM (inactive) | > 100 µM (inactive) | 80.5 µM (inactive) | > 100 µM (inactive) | > 100 µM (inactive) | 71.3 µM (inactive) | 90.2 µM (inactive) | 45.8 µM (inactive) | > 100 µM (inactive) | > 100 µM (inactive) | > 100 µM (inactive) | 44.6 µM (inactive) | > 100 µM (inactive) | 42.6 µM (inactive) | > 100 µM (inactive) |  |
| C[C@@H](c1ccccc1)N1CN(C(=O)OCc2ccccc2)C(CO)C1=O (stereo not given in full) |  | 67 µM (inactive) | > 100 µM (inactive) | 71.1 µM (inactive) | > 100 µM (inactive) | > 100 µM (inactive) | 47.2 µM (inactive) | 87.3 µM (inactive) | > 100 µM (inactive) | > 100 µM (inactive) | 93.1 µM (inactive) | > 100 µM (inactive) | > 100 µM (inactive) | > 100 µM (inactive) | > 100 µM (inactive) | > 100 µM (inactive) | > 100 µM (inactive) | > 100 µM (inactive) | > 100 µM (inactive) | 61.1 µM (inactive) |
| C[n+]1c(-c2ccc(/C=N/NC(=O)C(=O)N/N=C/c3ccc(-c4cn5ccsc5[n+]4C)cc3)cc2)cn2ccsc21 |  | > 100 µM (inactive) | > 100 µM (inactive) | > 100 µM (inactive) |  | > 100 µM (inactive) | > 100 µM (inactive) | > 100 µM (inactive) | 48.2 µM (inactive) | > 100 µM (inactive) | 82.6 µM (inactive) | > 100 µM (inactive) | 53.5 µM (inactive) | 87.3 µM (inactive) | > 100 µM (inactive) | > 100 µM (inactive) | > 100 µM (inactive) | > 100 µM (inactive) |  |  |
| CC(C)(C)OC(=O)NC(Cc1ccc(O)cc1)C(=O)NC(CCCCN)C(=O)O (stereo not drawn) (Boc-Tyr-Lys-OH; configuration not given here) | 24.8 µM (inactive) | 33.4 µM (inactive) |  |  | 15 µM (inactive) | 17.4 µM (inactive) | 30.4 µM (inactive) | 21.8 µM (inactive) | 20.7 µM (inactive) | 25 µM (inactive) | 32.9 µM (inactive) | 34.6 µM (inactive) |  | 23.8 µM (inactive) | 19.9 µM (inactive) | 28.6 µM (inactive) | 37.9 µM (inactive) | 20.9 µM (inactive) | 39.8 µM (inactive) |  |
| Cn1cc2c3ccccc3nc-2c2ccccc21 [ISOCRYPTOLEPINE] | 1.74 µM (inactive) | 1.45 µM (inactive) | 1.46 µM (inactive) |  | 1.77 µM (inactive) | 1.63 µM (inactive) | 2.67 µM (inactive) | 2.35 µM (inactive) | 2.39 µM (inactive) | 2.14 µM (inactive) | 1.53 µM (inactive) | 2.33 µM (inactive) | 2.78 µM (inactive) | 2.38 µM (inactive) | 1.57 µM (inactive) | 0.397 µM (active) | 3.93 µM (inactive) | 2.42 µM (inactive) |  |  |
